Experimental data published in US20260007716A1, “DESLORELIN FOR ATTENUATION OF ANIMAL URINE ODOR” (priority 2022, published 2026).

Assays:
[1] = system: molecules responsible of urine odor; experiment: LC-MS/MS metabolomic analysis of urine of male cats after deslorelin implant (Examples 2 and 3); assay type: in vivo, cat
Protocol: A first study A was performed in 2 groups of a total number of 7 male healthy cats old from 12 to 13 months and weighting between 4 and 6 kg in: Control group: n=3, intact males, administered sodium chloride (saline) on day 0 (D0), Chemically treated group: n=4 one implant of Suprelorin® 4.7 mg on day 0 (D0). The study A was conducted for a period of 63 days after the implantation of Suprelorin® 4.7 mg. From […]-7, a clinical examination of the cats was performed (body weight, temperature) and samples of urine and feces were collected. At D0, the cats of the treated group were implanted subcutaneously with Suprelorin® 4.7 mg (Virbac, France). From D7 to […], a weekly clinical examination of the cats was performed (body weight, temperature) and samples urine and feces were collected. […] Thanks to this unusual technic, the metabolomics present in samples have been assessed. […] The workflow template was untargeted metabolomics with statistics to detect unknowns with ID using online Databases and mzLogic.ons obtained from positive and negative ionization mode using MZmine (Version 2.39) were also analyzed. […] Chromatograms were detected using the ADAP chromatogram builder (MS level: 1, Minimum group size in number of scans: 5, Group intensity threshold: 5×10^2, minimum highest intensity: 10^5, m/z tolerance: 10 ppm). […]

cat = experiment: Safety study in cat and tolerance studies in male and female species; assay type: in vivo; details: safety study in cat, high dose
dogs = details: cited from earlier work
male cats [2] = experiment: Multi-site field, double-masked, placebo-controlled study of a single 4.7 mg deslorelin implant in male cats (Example 1); assay type: in vivo
Protocol: The aim of this multi-site field, double-masked, placebo-controlled, randomized study was to confirm that deslorelin implants can be used as a neutering option for male cats and can also reduce their associated tomcat sexual behaviours.
Privately owned indoor male cats [3 months-11 years of age] were allocated to two groups to be either implanted with one 4.7 mg deslorelin implant (Suprelorin® 4.7 mg, Virbac, France) or to receive sodium chloride. The implant and the saline solution were administered subcutaneously between the shoulder blades on day 0 (D0). Serum testosterone concentrations in ng/ml (T), sexual behaviors (presence of urine marking, frequency of vocalization, frequency of aggressiveness) and presence of intact male cat urine odour were assessed until month (M) 12 (D372). General safety assessments, bodyweight, appetite and adverse reactions were regularly followed.
The protocol received ethical approval. The Cochran-Mantel-Haenszel test stratified by center with the RIDIT transformation and the general association statistic were used for comparison between groups.
Among n=205 Male Cats, n=154 received Suprelorin® 4.7 mg (treated group) and n=51 received the saline solution as control group.

male cats [3] = experiment: Cat field studies 1 and 2: suppression of fertility, re-implantation and reversibility (Example 4); assay type: in vivo
Protocol: This example provides the data collected from 2 combined studies (Double-masked Placebo-Controlled randomized) that have been conducted sequentially according to the following schedule: • Study 1: The study 1 has been conducted on a group of 205 male cats divided into two groups, one Control Group that received 1 mL of saline solution (n=51-subcutaneous administration) and one Treated Group (n=154) that received an implant of Suprelorin® 4.7 mg (subcutaneous implant-deslorelin acetate). • Study 2: At the end of a first period of 12 months, the Suprelorin® implant was removed in all the male cats belonging to the Treated Group. 12 male cats of the Treated Group issued from study 1 were then administered saline solution (1 mL subcutaneously) (Saline Group) and 22 cats of the Treated Group issued from Study 1 were re-implanted with a new Suprelorin® 4.7 mg implant for a second period of time of 12 months (Treated twice Group). The efficacy and safety of the re-implantation was followed-up for these supplementary 12 months, i.e. for a total of 24 months.
The observation schedule was as follows: • Study 1: V1: Day −14 to −7; V2: Day 0; V3: 1.5 months±3 days; V4: 3 months±5 days, V5: 6 months±5 days, V6: 9 months±5 days; V7: 12 months±5 days; • Study 2: V8: 12 months±3 days; V9: 13.5 months±3 days; V10: 15 months±5 days; V11: 18 months±5 days; V12: 21 months±5 days; V13: 24 months±5 days.
Regarding the enrolment criteria, in both studies the criteria were as the following: • Domestic Cats • Age >3 MONTHS old or >15 MONTHS in Study 2 • Intact Indoor males • Client-owned (including shelter cats/rehomed by foster families)
With the additional criteria for study 2 of being a success in study 1.
In these studies the following primary endpoints were measured: • For Study 1: the suppression of fertility (Testosterone≤0.10 ng/ml*from V4 until V7*-3 to 12 months) • Study 2: the suppression of fertility (Testosterone≤0.10 ng/ml*from V8 until V13 (12 to 24 months) and the time to reversion effect.
In addition to the safety parameters (Haematology and blood biochemistry, Urinalysis, Local reactions at the implantation site, Change in Body weight, Appetite, Abnormal testicular evaluation, Adverse events), the following secondary endpoints have been reported as well: • Sexual behaviour sum score • Aggression • Vocalization • Urine marking • Urine Smell/odour • Penile Spines • Testicular volume

[4] = vs saline group, throughout the study

Question: With `CCNC(=O)[C@@H]1CCCN1C(=O)[C@H](CCCN=C(N)N)NC(=O)[C@H](CC(C)C)NC(=O)[C@@H](Cc1c[nH]c2ccccc12)NC(=O)[C@H](Cc1ccc(O)cc1)NC(=O)[C@H](CO)NC(=O)[C@H](Cc1c[nH]c2ccccc12)NC(=O)[C@H](Cc1cnc[nH]1)NC(=O)[C@@H]1CCC(=O)N1` [deslorelin] as the compound, how does the “levels of cadaverine, indole, paracresol, isovalthine and isobuteine” value ([1]; individually or together at least by two, summary of Example 3 data) read?
Answer: down regulate

Question: What about the “p-coumaroylputrescine concentration in urine” value ([1]; male cat urine, as a function of time, chemically treated group vs control group) of the same compound?
Answer: decrease

Question: And the adverse events (cat)?
Answer: neither serious adverse events nor live threatening events

Question: And the presence of deslorelin (dogs; dog, in vivo)?
Answer: 2.5 months

Question: And the “duration of observed effect” value (dogs; dogs)?
Answer: at least 6 months

Question: And the “flare in sexual behavior” value (male cats [2]; one 4.7 mg implant)?
Answer: No flare in sexual behavior

Question: And the safety concerns (male cats [2]; one 4.7 mg implant, up to M12)?
Answer: no safety concerns

Question: What about the Sexual behavior scores (male cats [2]; [4]) of the same compound?
Answer: decreased significantly

Question: What about the testicular volumes (male cats [2]; [4]) of the same compound?
Answer: decreased significantly

Question: And the urine odour (male cats [2]; [4])?
Answer: decreased significantly

Question: What about the “visibility of penile spines” value (male cats [2]; [4]) of the same compound?
Answer: decreased significantly

Question: And the “duration of effective chemical castration” value (male cats [3])?
Answer: at least 12 months

Question: And the “reversibility of effect at the end of the treatment” value (male cats [3])?
Answer: reversible

Question: And the sexual behaviors (male cats [3])?
Answer: reduced

Question: And the “onset of efficacy in behavioral reduction” value (male cats [3]; approx.)?
Answer: 7 to 31 days

Question: And the safety concerns (male cats [3]; single or repeated administration, up to 24 months)?
Answer: no safety concern
